Assay results published in ChEMBL document CHEMBL1146963, “Synthesis and biological evaluation of alpha-galactosylceramide (KRN7000) and isoglobotrihexosylceramide (iGb3)” (Bioorg Med Chem Lett, 2006).
Active and inactive are the calls of the source.

How the values were obtained:
Format in all cases: functional, cell-based
iNKT [1] = assay: Release of IL2 from mouse iNKT hybridoma stimulated by bone marrow-derived mouse DC at 0.2 ug/ml
iNKT [2] = assay: Release of IL4 and IFN-gamma from human iNKT cells stimulated by C1R cell expressing human CD1d at 20 ug/ml
iNKT [3] = assay: Release of IL4 and IFN-gamma from human iNKT cells stimulated by C1R cell expressing human CD1d at 5 ug/ml

Measured: Activity

CCCCCCCCCCCCC/C=C/[C@@H](O)[C@H](CO[C@@H]1O[C@H](CO)[C@@H](O[C@@H]2O[C@H](CO)[C@H](O)[C@H](O[C@H]3O[C@H](CO)[C@H](O)[C@H](O)[C@H]3O)[C@H]2O)[C@H](O)[C@H]1O)NC(=O)CCCCCCCCCCCCCCCCCCCCCCCCC
active: iNKT [1] | iNKT [2] | iNKT [3]
